Patent publication US20250340590A1, “PEPTIDE HAVING ANTI-INFLAMMATORY ACTIVITY AND USE THEREOF” (CAREGEN CO., LTD., priority 2021, published 2025)

Experiments:
IFNγ = IFNγ secretion by ELISA in TNFα-induced mouse splenocytes; assay type: cell-based; details: TNFα 20 nM, 24 hours
Protocol: (§1) Inflammation was induced by treating mouse splenocytes with the inflammatory cytokine TNFα, and the secretion amounts of the inflammatory cytokines IL-17, IL-1B, and IFNγ were confirmed. IL-17 corresponds to a pro-inflammatory cytokine, and the descriptions of IL-1β and IFNγ are the same as above.
(§2) Mouse splenocytes were dispensed into a 24-well plate at a concentration of 1×10^7 cells/well and cultured until the next day. The medium was replaced with serum-free medium, and after 4 hours, the cells were treated with TNFα and the peptide of the present invention and then cultured again for another 24 hours. In order to induce inflammation, the cells were treated with TNFα at 20 nM, and the peptide at 5 μM and 50 μM, respectively. The mouse splenocytes in the group in which inflammation was not induced due to untreatment with TNFα (NON); the negative control group in which the cells were treated with TNFα but not treated with the peptide (NC); and the group in which the cells were treated with TNFα along with the peptide of the present invention at the same concentration as above, respectively, were reacted as described above and the cell cultures were recovered. […]

Cox2 [1] = test: Cox2 mRNA level by RT-PCR in TNFα-induced mouse splenocytes; assay type: cell-based; details: TNFα 20 nM, peptide at 5 μM and 50 μM, 3 hours, compared to group not treated with the peptide
Protocol: (§3) In order to further confirm the anti-inflammatory effect of the peptide treatment of the present invention in addition to the results of Experimental Example <3-1>, inflammation was induced by treating mouse splenocytes with TNFα, and the expression levels of inflammatory cytokines TNFα and IL-1β, and Cox2, which is an inflammation-inducing marker, genes were confirmed. In order to induce inflammation, the cells were treated with cytokine TNFα, and since TNFα corresponds to a signaling protein associated with inflammation, IL-1β corresponds to a cytokine that promotes inflammation, and Cox2 is a protein associated with inflammation, the degree of inflammation can be confirmed by measuring the expression levels of TNFα, Cox2, and IL-1β genes.
(§4) Mouse splenocytes were dispensed into a 24-well plate at a concentration of 1× 10^7 cells/well and cultured until the next day. The medium was replaced with serum-free medium, and after 3 hours, the cells were treated with TNFα and the peptide of the present invention and then cultured for another 3 hours. In order to induce inflammation, the cells were treated with TNFα at 20 nM, and the peptide at 5 μM and 50 μM, respectively. […] After quantifying the amount of isolated RNA, cDNA was synthesized using a cDNA synthesis kit (Intron, Korea), PCR was performed using a PCR premix (Intron, Korea) and primers for TNFα, Cox2, and IL-1B. […]

IL-1β [2] = test: IL-1β mRNA level by RT-PCR in TNFα-induced mouse splenocytes; assay type: cell-based; details: TNFα 20 nM, peptide at 5 μM and 50 μM, 3 hours, compared to group not treated with the peptide
Protocol: as §3, §4

Cox2 [3] = test: Cox2 protein level by Western blot in HaCaT cells induced with LPS, TGFβ and IL-23; assay type: cell-based, human; details: IL-23 and LPS, peptide at 5 μM and 50 μM, 24 hours, compared to group not treated with the peptide
Protocol: In order to further confirm the anti-inflammatory effect of the peptide treatment of the present invention in addition to the results of Experimental Example 1, HaCaT cells were treated with Th17 (type 17), which is an inflammation-inducing substance, and the expression levels of inflammation-inducing markers iNos and Cox2 were confirmed. As the inflammation-inducing substances, the cells were treated with LPS, TGFβ, and IL-23, and since iNos is an enzyme involved in the production of nitric oxide (NO), which is an inflammation-related protein induced by LPS, etc., it is possible to confirm whether inflammation is inhibited by measuring the expression levels of iNos and Cox2.
HaCaT cells were dispensed into a 24-well plate at a concentration of 3× 10^5 cells/well and cultured until the next day. The medium was replaced with serum-free medium, and after 4 hours, the cells were treated with TGFβ, IL-23, and LPS, which are Th17 type inflammation-inducing cytokines, and then with the peptide of the present invention and cultured again for another 24 hours. […] In order to perform Western blotting, the amounts of iNos and Cox2 proteins were measured using an anti-iNos antibody and an anti-Cox2 antibody (Cell Signaling Technology, USA). […]

IL-1β [4] = test: IL-1β secretion by ELISA in TNFα-induced mouse splenocytes; assay type: cell-based; details: TNFα 20 nM, 24 hours
Protocol: as §1, §2

TWNS [peptide of the present invention]
decreased: secretion amount of IFNγ (IFNγ; peptide at 5 μM) | secretion amount of IFNγ (IFNγ; peptide at 50 μM) | mRNA expression level of Cox2 (Cox2 [1]) | mRNA expression level of IL-1β (IL-1β [2]) | expression level of Cox2 protein (Cox2 [3]) | secretion amount of IL-1β (IL-1β [4]; peptide at 5 μM) | secretion amount of IL-1β (IL-1β [4]; peptide at 50 μM)
